# Reference: patent US8765748B2, “Indazolyl, benzimidazolyl, benzotriazolyl substituted indolinone derivatives as kinase inhibitors useful in the treatment of cancer” (University Health Network, priority 2007, dated 2014)
# pIC50: −log10 of the molar value.
# Legend:
# Format in all cases: biochemical
# [1] = target: T1, Aurora B (Homo sapiens, UniProt Q96GD4); assay: Aurora B Inhibition Assay (Z-Lyte); details: 128 μM ATP, 28 nM Aurora B; read-out: Aurora B IC50 Ranges
# T1 construct: purchased Invitrogen PV3970
# Experimental: (§1) Aurora B inhibition was determined using the Z-Lyte assay kit from Invitrogen. The assay was performed using the recommended manufacturer's instructions with 128 μM ATP and 28 nM Aurora B (Invitrogen cat #PV3970). The % inhibition values were determined according to the manufacturer's directions and IC50 values were obtained using a non-linear 4 point logistic curve fit (XLfit4, IDBS)
# [2] = target: T2, human PLK4 (Homo sapiens, UniProt O00444); assay: PLK4 Inhibition Assay (indirect ELISA); details: 15 μM ATP, 4 nM GST-PLK4; read-out: PLK4 IC50 Ranges
# T2 construct: amino terminal GST fusion of residues 1-391 of human PLK4; made in house; host or cells: E. coli
# T2 sequence (O00444 1-391): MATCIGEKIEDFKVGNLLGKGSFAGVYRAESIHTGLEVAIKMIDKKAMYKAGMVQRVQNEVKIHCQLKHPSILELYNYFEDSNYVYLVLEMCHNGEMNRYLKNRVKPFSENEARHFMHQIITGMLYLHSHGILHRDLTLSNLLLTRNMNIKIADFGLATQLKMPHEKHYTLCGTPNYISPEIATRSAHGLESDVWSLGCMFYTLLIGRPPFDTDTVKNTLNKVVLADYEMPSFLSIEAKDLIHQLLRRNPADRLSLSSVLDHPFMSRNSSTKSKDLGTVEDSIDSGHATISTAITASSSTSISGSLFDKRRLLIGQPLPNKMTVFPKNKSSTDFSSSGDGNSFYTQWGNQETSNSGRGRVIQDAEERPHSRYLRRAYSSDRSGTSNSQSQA
# Experimental: The protein was purified from clarified cell extracts after induction at 15° C. overnight using glutathione sepharose, gel permeation chromatography, and ion exchange (Resource Q). The resulting protein was dephosphorylated with lambda phosphatase (NEB cat #P0753), and resolved from the phosphatase using gluthione sepharose. The dephosphorylated GST-PLK4 was stored in aliquots at −80° C. until use. PLK4 activity was measured using an indirect ELISA detection system. […] Compounds were pre-incubated in the presence of enzyme for 15 minutes prior to addition of ATP and the activity remaining quantified using the above described activity assay. […] The IC50 value was determined using a non-linear 4 point logistic curve fit (XLfit4, IDBS) with the formula; (A+(B/(1+((x/C)^D)))), where A=background value, B=range, C=inflection point, D=curve fit parameter.
# [3] = target: T3, Aurora A (Homo sapiens, UniProt O14965); assay: Aurora A Inhibition Assay (Z-Lyte); details: for inhibition at 10 µM: 10 μM compound, read-out: Aurora A relative inhibition percentage at a dose of 10 μM; for pIC50: 20 μM ATP, 12 nM Aurora A, read-out: Aurora A IC50 Ranges; for inhibition at 1 µM: 1 μM compound, read-out: Aurora A relative inhibition percentage at a dose of 1 μM
# T3 construct: purchased Invitrogen PV3612
# T3 sequence (O14965 1-403): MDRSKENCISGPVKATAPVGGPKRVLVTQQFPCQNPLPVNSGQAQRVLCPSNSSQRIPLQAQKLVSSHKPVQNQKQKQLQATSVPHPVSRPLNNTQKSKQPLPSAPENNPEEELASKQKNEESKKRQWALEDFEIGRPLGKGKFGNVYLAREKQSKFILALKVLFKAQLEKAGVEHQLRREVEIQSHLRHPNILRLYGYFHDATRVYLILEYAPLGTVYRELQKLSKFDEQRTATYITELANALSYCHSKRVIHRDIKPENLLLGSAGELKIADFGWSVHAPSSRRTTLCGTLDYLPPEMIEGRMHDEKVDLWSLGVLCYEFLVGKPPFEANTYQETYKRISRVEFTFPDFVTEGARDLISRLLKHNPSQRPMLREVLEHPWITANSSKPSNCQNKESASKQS
# Experimental: as §1, with “Aurora A” for “Aurora B”, “with 20” for “with 128”, “and 12” for “and 28”, “cat #PV3612).” for “cat #PV3970).”
# [4] = target: T4, PLK2 (Homo sapiens, UniProt Q9NYY3); assay: PLK2 Inhibition Assay (Z-Lyte); details: 10 μM compound; read-out: PLK2 relative inhibition percentage at a dose of 10 μM
# T4 construct: purchased Invitrogen PV4204
# Experimental: as §1, with “PLK2” for “Aurora B”, “Invitrogen (cat #PV3802).” for “Invitrogen.”, “60” for “128”, “133” for “28”, “#PV4204).” for “#PV3970).”
# [5] = target: T5, PLK1 (Homo sapiens, UniProt P53350); assay: PLK1 Inhibition Assay (Z-Lyte); details: 10 μM compound; read-out: PLK1 relative inhibition percentage at a dose of 10 μM
# T5 construct: purchased Invitrogen PV3501
# Experimental: PLK1 inhibition was determined using the Z-Lyte assay kit from Invitrogen (cat #PV3802). […] The % inhibition values were determined according to the manufacturer's directions and IC50 values were obtained using a non-linear 4 point logistic curve fit (XLfit4, IDBS)
# T5 sequence (P53350 whole entry): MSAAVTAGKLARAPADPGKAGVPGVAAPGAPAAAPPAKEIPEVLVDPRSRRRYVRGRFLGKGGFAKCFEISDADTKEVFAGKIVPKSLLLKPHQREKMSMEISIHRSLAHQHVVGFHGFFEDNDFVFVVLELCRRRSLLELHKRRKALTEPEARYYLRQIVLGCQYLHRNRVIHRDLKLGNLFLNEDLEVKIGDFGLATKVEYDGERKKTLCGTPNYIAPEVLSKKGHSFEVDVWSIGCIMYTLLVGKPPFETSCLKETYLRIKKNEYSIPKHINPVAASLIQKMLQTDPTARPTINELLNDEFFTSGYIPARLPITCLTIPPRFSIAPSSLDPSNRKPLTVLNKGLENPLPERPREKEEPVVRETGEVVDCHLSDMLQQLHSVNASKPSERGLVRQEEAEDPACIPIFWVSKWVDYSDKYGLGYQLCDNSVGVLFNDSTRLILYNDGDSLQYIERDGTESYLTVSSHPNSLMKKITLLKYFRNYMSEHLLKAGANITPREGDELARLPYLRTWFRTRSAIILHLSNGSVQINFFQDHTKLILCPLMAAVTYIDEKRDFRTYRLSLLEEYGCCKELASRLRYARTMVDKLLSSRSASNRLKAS
# T4 sequence (Q9NYY3 whole entry): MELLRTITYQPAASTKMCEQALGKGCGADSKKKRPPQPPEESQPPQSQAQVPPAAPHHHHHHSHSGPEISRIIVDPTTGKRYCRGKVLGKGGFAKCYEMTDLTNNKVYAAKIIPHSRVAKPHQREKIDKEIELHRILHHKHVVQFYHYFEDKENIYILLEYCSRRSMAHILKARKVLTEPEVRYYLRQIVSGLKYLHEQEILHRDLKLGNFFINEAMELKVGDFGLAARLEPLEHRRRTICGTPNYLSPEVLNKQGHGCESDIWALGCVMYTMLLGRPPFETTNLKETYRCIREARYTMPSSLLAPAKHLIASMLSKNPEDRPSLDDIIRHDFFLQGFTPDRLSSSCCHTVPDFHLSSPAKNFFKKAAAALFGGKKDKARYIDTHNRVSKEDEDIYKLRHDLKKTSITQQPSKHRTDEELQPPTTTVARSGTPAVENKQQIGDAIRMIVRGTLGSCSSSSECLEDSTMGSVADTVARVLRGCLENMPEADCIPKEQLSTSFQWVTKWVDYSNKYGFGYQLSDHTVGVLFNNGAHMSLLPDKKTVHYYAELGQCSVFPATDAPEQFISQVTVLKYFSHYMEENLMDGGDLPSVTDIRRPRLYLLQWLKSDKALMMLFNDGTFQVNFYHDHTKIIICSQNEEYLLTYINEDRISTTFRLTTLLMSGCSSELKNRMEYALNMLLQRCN
# T1 sequence (Q96GD4 whole entry): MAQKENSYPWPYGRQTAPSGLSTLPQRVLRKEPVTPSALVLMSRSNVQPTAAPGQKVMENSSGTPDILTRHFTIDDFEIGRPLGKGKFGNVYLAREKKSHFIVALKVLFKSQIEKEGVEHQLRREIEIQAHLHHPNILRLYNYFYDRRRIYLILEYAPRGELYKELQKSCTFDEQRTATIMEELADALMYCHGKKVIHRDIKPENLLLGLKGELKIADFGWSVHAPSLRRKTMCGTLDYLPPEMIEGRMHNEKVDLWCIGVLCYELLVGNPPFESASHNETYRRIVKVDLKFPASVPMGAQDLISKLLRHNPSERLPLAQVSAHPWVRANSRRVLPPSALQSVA
SMILES,pIC50 [1],pIC50 [2],inhibition at 10 µM [3] [%],pIC50 [3],inhibition at 1 µM [3] [%],inhibition at 10 µM [4] [%],inhibition at 10 µM [5] [%]
"O=C(O)/C=C/c1n[nH]c2cc(C=C3C(=O)Nc4ncccc43)ccc12 (mixture of isomers) [Example A71, (E)-3-(6-((E & Z)-(2-oxo-1H-pyrrolo[2,3-b]pyridin-3(2H)-ylidene)-methyl)-1H-indazol-3-yl)acrylic acid]",> 5.30,> 5.30,> 50,–,–,–,–
"O=C1Nc2ncc(Br)cc2C1=Cc1ccc2c(/C=C/c3cccnc3)n[nH]c2c1 (mixture of isomers) [Example A140, (E and Z)-5-bromo-3-((3-((E)-2-(pyridin-3-yl)vinyl)-1H-indazol-6-yl)methylene)-1H-pyrrolo[2,3-b]pyridin-2(3H)-one]",> 5.30,> 5.30,–,> 5.30,–,–,–
"COC(=O)c1ccc(/C=C/c2n[nH]c3cc(C=C4C(=O)Nc5ccc(OC)cc54)ccc23)cc1 (mixture of isomers) [Example A142, methyl 4-((E)-2-(6-((E and Z)-(5-methoxy-2-oxoindolin-3-ylidene)methyl)-1H-indazol-3-yl)vinyl)benzoate]",> 5.30,> 5.30,–,–,> 50,–,–
"COC(=O)c1ccc(/C=C/c2n[nH]c3cc(C=C4C(=O)Nc5ncccc54)ccc23)cc1 (mixture of isomers) [Example A143, methyl 4-((E)-2-(6-((E and Z)-(2-oxo-1H-pyrrolo[2,3-b]pyridin-3(2H)-ylidene)methyl)-1H-indazol-3-yl)vinyl)benzoate]",> 5.30,> 5.30,–,–,> 50,–,–
"O=C1Nc2ncccc2C1=Cc1ccc2c(/C=C/c3ccc(C(=O)O)cc3)n[nH]c2c1 (mixture of isomers) [Example A146, 4-((E)-2-(6-((E/Z)-(2-oxo-1H-pyrrolo[2,3-b]pyridin-3(2H)-ylidene)methyl)-1H-indazol-3-yl)vinyl)benzoic acid]",> 5.30,> 5.30,–,> 5.30,–,–,–
"O=C1Nc2ccccc2/C1=C\c1cc(Br)c2cn[nH]c2c1 [Example A53a, (E)-3-((4-bromo-1H-indazol-6-yl)methylene)indolin-2-one]",> 5.30,> 5.30,–,–,–,> 50,< 50
"COc1ccc2c(c1)/C(=C\c1ccc3c(-c4ccc(N(C)C)nc4)n[nH]c3c1)C(=O)N2 [Example A116, (E)-3-((3-(6-(dimethylamino)pyridin-3-yl)-1H-indazol-6-yl)methyl-ene)-5-methoxyindolin-2-one]",–,–,–,–,–,< 50,< 50
"O=C1Nc2ccc(O)cc2/C1=C\c1ccc2cn[nH]c2c1 [Example A123, (E)-3-((1H-indazol-6-yl)methylene)-5-hydroxyindolin-2-one]",> 5.30,> 5.30,–,> 5.30,–,–,–
"COc1ccc2c(c1)/C(=C\c1ccc3c(/C=C/C(=O)N(C)CCN(C)C)n[nH]c3c1)C(=O)N2 [Example A126, (E)-N-(2-(dimethylamino)ethyl)-3-(6-((E)-(5-methoxy-2-oxoindolin-3-ylidene)methyl)-1H-indazol-3-yl)-N-methylacrylamide 2,2,2-trifluoroacetate]",> 5.30,> 5.30,> 50,–,–,–,–
"COC(=O)c1ccc(/C=C/c2n[nH]c3cc(/C=C4\C(=O)Nc5ccccc54)ccc23)cc1 [Example A141, methyl 4-((E)-2-(6-((Z)-(2-oxoindolin-3-ylidene)methyl)-1H-indazol-3-yl)vinyl)benzoate]",> 5.30,> 5.30,–,–,> 50,–,–
"O=C1Nc2ccccc2/C1=C\c1ccc2c(/C=C/c3ccc(C(=O)O)cc3)n[nH]c2c1 [Example A144, 4-((E)-2-(6-((E)-(2-oxoindolin-3-ylidene)methyl)-1H-indazol-3-yl)vinyl)benzoic acid]",> 5.30,> 5.30,–,> 5.30,–,–,–
"COc1ccc2c(c1)/C(=C\c1ccc3c(-c4cnc(N5CCN(C)CC5)nc4)n[nH]c3c1)C(=O)N2 [Example A151, (E)-5-methoxy-3-((3-(2-(4-methylpiperazin-1-yl)pyrimidin-5-yl)-1H-indazol-6-yl)methylene)indolin-2-one]",> 5.30,> 5.30,–,4.30 to 5.30,–,–,–

# Next, values leading:
pIC50 [1],pIC50 [2],inhibition at 10 µM [3] [%],pIC50 [3],inhibition at 1 µM [3] [%],inhibition at 10 µM [4] [%],inhibition at 10 µM [5] [%],SMILES
> 5.30,> 5.30,–,> 5.30,–,–,–,"N#Cc1ccc2c(c1)C(=Cc1ccc3c(/C=C/c4ccncc4)n[nH]c3c1)C(=O)N2 (mixture of isomers) [Example A128, (E and Z)-2-oxo-3-((3-((E)-2-(pyridin-4-yl)vinyl)-1H-indazol-6-yl)methylene)indoline-5-carbonitrile]"
> 5.30,> 5.30,–,> 5.30,–,–,–,"O=C1Nc2ccc(Cl)nc2C1=Cc1ccc2c(/C=C/c3ccncc3)n[nH]c2c1 (mixture of isomers) [Example A137, (E and Z)-5-chloro-3-((3-((E)-2-(pyridin-4-yl)vinyl)-1H-indazol-6-yl)methylene)-1H-pyrrolo[3,2-b]pyridin-2(3H)-one]"
> 5.30,> 5.30,–,> 5.30,–,–,–,"O=C1Nc2ccc(Br)cc2C1=Cc1ccc2c(/C=C/c3cccnc3)n[nH]c2c1 (mixture of isomers) [Example A139, (E and Z)-5-bromo-3-((3-((E)-2-(pyridin-3-yl)vinyl)-1H-indazol-6-yl)methylene)indolin-2-one]"
–,> 5.30,–,–,–,< 50,< 50,"COCn1nc(/C=C/c2ccncc2)c2ccc(/C=C3/C(=O)Nc4ccc(Br)cc43)cc21 [Example A63, (E)-5-bromo-3-((1-(methoxymethyl)-3-((E)-2-(pyridin-4-yl)vinyl)-1H-indazol-6-yl)methylene)indolin-2-one]"
> 5.30,> 5.30,–,> 5.30,–,–,–,"O=C1Nc2ccc(O)cc2/C1=C\c1ccc2c(/C=C/c3ccncc3)n[nH]c2c1 [Example A124, (E)-5-hydroxy-3-((3-((E)-2-(pyridin-4-yl)vinyl)-1H-indazol-6-yl)methylene)indolin-2-one 2,2,2-trifluoroacetate]"
> 5.30,> 5.30,–,> 5.30,–,–,–,"COc1cc2c(cc1OC)/C(=C\c1ccc3c(/C=C/c4ccncc4)n[nH]c3c1)C(=O)N2 [Example A138, (E)-5,6-dimethoxy-3-((3-((E)-2-(pyridin-4-yl)vinyl)-1H-indazol-6-yl)methylene)indolin-2-one]"
> 5.30,> 5.30,–,> 5.30,–,–,–,"COc1ccc2c(c1)/C(=C\c1ccc3c(/C=C/c4ccc(C(=O)O)cc4)n[nH]c3c1)C(=O)N2 [Example A145, 4-((E)-2-(6-((E)-(5-methoxy-2-oxoindolin-3-ylidene)methyl)-1H-indazol-3-yl)vinyl)benzoic acid]"
